Measured values: patent EP1247803A2, “Indolinone compounds suitable for modulation of protein kinases” (Sugen, Inc., priority 1996, dated 1998)

What follows are compounds tested against T1, FLK-1 receptor (Mus musculus, UniProt P35918) (assay: FLK-1 ELISA (kinase activity of the FLK-1 receptor in FLK-1/NIH3T3 cells, VEGF stimulated)).
T1 construct: expressed in transfected cells; host or cells: NIH3T3 C7#3
T1 sequence (P35918 20-1345): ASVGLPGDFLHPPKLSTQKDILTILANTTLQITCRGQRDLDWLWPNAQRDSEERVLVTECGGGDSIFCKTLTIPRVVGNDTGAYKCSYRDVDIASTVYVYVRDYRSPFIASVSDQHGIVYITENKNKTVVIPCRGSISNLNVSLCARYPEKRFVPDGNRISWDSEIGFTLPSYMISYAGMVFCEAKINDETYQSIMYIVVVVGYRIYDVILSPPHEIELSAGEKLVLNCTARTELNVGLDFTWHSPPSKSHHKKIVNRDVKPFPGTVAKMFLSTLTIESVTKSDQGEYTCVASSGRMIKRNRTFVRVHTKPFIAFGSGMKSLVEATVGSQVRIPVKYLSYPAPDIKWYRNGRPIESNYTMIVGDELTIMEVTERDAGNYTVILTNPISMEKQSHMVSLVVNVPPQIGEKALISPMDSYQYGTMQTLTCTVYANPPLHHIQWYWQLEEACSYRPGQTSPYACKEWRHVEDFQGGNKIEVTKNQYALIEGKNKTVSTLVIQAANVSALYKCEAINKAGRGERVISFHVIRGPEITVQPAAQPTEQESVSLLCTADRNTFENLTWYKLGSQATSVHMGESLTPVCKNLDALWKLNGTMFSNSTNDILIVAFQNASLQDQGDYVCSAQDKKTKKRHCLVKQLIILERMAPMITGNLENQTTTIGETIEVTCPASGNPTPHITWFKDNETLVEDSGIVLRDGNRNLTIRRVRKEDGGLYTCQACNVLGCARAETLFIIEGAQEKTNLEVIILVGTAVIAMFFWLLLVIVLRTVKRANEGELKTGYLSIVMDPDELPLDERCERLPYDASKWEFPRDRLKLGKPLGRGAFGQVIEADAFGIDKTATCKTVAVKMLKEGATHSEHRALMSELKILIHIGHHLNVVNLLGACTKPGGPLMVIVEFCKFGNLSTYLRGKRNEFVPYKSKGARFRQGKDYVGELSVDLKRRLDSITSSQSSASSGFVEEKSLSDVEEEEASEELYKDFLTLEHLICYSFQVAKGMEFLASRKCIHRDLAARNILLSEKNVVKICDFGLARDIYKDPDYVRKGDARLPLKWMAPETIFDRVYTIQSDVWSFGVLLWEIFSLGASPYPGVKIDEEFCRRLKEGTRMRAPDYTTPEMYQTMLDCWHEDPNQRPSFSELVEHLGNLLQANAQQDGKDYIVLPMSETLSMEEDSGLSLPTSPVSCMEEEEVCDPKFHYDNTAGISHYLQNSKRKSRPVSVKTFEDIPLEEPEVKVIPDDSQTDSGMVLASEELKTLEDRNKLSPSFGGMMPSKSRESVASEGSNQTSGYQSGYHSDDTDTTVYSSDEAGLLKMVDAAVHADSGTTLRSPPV
Type: cell-based
Procedure, shortened: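 An ELISA using affinity-purified rabbit anti-FLK-1 antiserum on anti-rabbit IgG-coated plates measured VEGF-stimulated FLK-1 kinase activity. NIH3T3 C7#3 cells carrying FLK-1 were serum-starved (0.1% FBS) overnight, then exposed to compound (final 1:200 dilution, 0.5% DMSO) for two hours at 37 °C.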
In the case of `O=C1Nc2ccc(S(=O)(=O)N3CCOCC3)cc2C1=Cc1cc2c([nH]1)CCCC2` [10721/F05], the “Fik Kinase %Inhibition” value is reported as 8.1%. With `CC(C)(C)c1cc(C=C2C(=O)Nc3ccc(I)cc32)cc(Cl)c1O` [10722/B08] the “Fik Kinase %Inhibition” value was 11.2%. In the case of `O=C1Nc2ccc(S(=O)(=O)Nc3ccc(C(F)(F)F)cc3)cc2C1=Cc1ccc(C(F)(F)F)cc1` [10722/E11], the “Fik Kinase %Inhibition” value is reported as 15.3%. For `Cn1cc(Cl)c(C=C2C(=O)Nc3ccc(CCCl)cc32)n1` [10721/G03], the “Fik Kinase %Inhibition” value was 12.1%. For `CC(C)(C)c1cc(C=C2C(=O)Nc3c(Br)cc(Br)cc32)cc(Cl)c1O` [10722/A08], the “Fik Kinase %Inhibition” value was 13.7%. With `O=C1Nc2c(Br)cc(Br)cc2C1=Cc1ccc(C(=O)O)cc1` [10722/A05] the “Fik Kinase %Inhibition” value was 10.5%. With `CC(C)(C)c1cc(C=C2C(=O)Nc3ccc(S(=O)(=O)N4CCOCC4)cc32)ccc1O` [10721/F09] the “Fik Kinase %Inhibition” value was 65.2%. For `CNS(=O)(=O)c1ccc2c(c1)C(=Cc1cc([N+](=O)[O-])c(O)c(C(C)(C)C)c1)C(=O)N2` [10722/D02], the “Fik Kinase %Inhibition” value was 30.7%. In the case of `CC(C)(C)c1cc(C=C2C(=O)Nc3ccc(S(=O)(=O)Nc4ccc(C(F)(F)F)cc4)cc32)ccc1O` [10721/E09], the “Fik Kinase %Inhibition” value is reported as 36.9%. For `CCCCN(CCCC)c1ccc(C=C2C(=O)Nc3ccc(I)cc32)cc1` [10722/B10], the “Fik Kinase %Inhibition” value was -0.9%. `O=C1Nc2ccc(I)cc2C1=Cc1ccc([N+](=O)[O-])s1` [10722/B04] was tested, and the “Fik Kinase %Inhibition” value was 14.7%. With `CNS(=O)(=O)c1ccc2c(c1)C(=Cc1c(O)cc(O)cc1O)C(=O)N2` [10722/D03] the “Fik Kinase %Inhibition” value was 15.0%. With `O=C1Nc2ccc(S(=O)(=O)Nc3ccc(C(F)(F)F)cc3)cc2C1=Cc1ccc([N+](=O)[O-])s1` [10722/E04] the “Fik Kinase %Inhibition” value was 38.6%. For `Cn1cc(Cl)c(C=C2C(=O)Nc3ccc(S(=O)(=O)N4CCOCC4)cc32)n1` [10721/F03], the “Fik Kinase %Inhibition” value was 9.1%. In the case of `O=C1Nc2ccc(S(=O)(=O)Nc3ccc(C(F)(F)F)cc3)cc2C1=Cc1ccc(Cl)s1` [10721/E07], the “Fik Kinase %Inhibition” value is reported as 15.6%. `O=C1Nc2ccc(I)cc2C1=Cc1ccc(C(=O)O)cc1` [10722/B05] was tested, and the “Fik Kinase %Inhibition” value was 18.5%. With `CC(C)(C)c1cc(C=C2C(=O)Nc3ccc(CCCl)cc32)cc(C(C)(C)C)c1O` [10721/G11] the “Fik Kinase %Inhibition” value was -7.1%. In the case of `Cc1cc(C=C2C(=O)Nc3ccc(CCCl)cc32)sc1C` [10721/G04], the “Fik Kinase %Inhibition” value is reported as 3.2%. `Cc1cc(C=C2C(=O)Nc3ccc(S(=O)(=O)N4CCOCC4)cc32)sc1C` [10721/F04] was tested, and the “Fik Kinase %Inhibition” value was 7.4%. With `CNS(=O)(=O)c1ccc2c(c1)C(=Cc1cc(C)c(O)c(C)c1)C(=O)N2` [10722/D07] the “Fik Kinase %Inhibition” value was 14.1%. For `O=C1Nc2ccc(I)cc2C1=Cc1ccc(F)cc1F` [10722/B06], the “Fik Kinase %Inhibition” value was 13.9%. `CC(C)(C)c1cc(C=C2C(=O)Nc3ccc(S(=O)(=O)Nc4ccc(C(F)(F)F)cc4)cc32)cc(Cl)c1O` [10722/E08] was tested, and the “Fik Kinase %Inhibition” value was 18.6%. `CCOc1ccccc1C=C1C(=O)Nc2ccc(S(=O)(=O)NC)cc21` [10717/D02] was tested, and the “Fik Kinase %Inhibition” value was 5.1%. In the case of `Cc1cc(C)c(C=C2C(=O)Nc3ccc(S(=O)(=O)N4CCOCC4)cc32)[nH]1` [10721/F08], the “Fik Kinase %Inhibition” value is reported as -6.4%. `O=C1Nc2c(Br)cc(Br)cc2C1=Cc1ccc([N+](=O)[O-])s1` [10722/A04] was tested, and the “Fik Kinase %Inhibition” value was 13.4%.
